The structures appear in SMILES notation. Entries after “also recorded” stand apart in the source; their conditions may differ.

The subject of data set [1] is female rat sexual proceptivity. Kind of data set: Female rat sexual proceptivity test (time investigating male vs female stimulus). Format: in vivo. The procedure: Ovariectomised adult female Sprague Dawley rats (180-200 g, from Charles River) were housed in groups of 6 in a reversed lighting system of 12 h light:dark (lights off 7.00-19.00 h). Two weeks after ovariectomy they were used for sexual activity tests. The experiments started at least 5 h into the dark period.
Tests were carried out in a circular arena of 90 cm diameter, surrounded by a 30 cm high wall. Two small cages with wire-mesh front (15×15 cm) are fixed into the wall such that the front of the cage is <> with the wall and the 2 cages are opposite each other. They contained two stimuli animals: an intact sexually experienced male and a receptive female (ovariectomised, primed with 5 μg oestradiol benzoate dissolved in corn oil and injected subcutaneously 48 hours before the test and with 0.5 mg of progesterone four hours before the test). Sexually naive test and control animals were used. Forty eight hours before the tests, both the test and control animals were primed with 5 μg oestradiol benzoate. For animals used as positive controls, progesterone (0.5 mg/0.1 ml) was dissolved in corn oil and administered subcutaneously (s.c.), 4 h before the test. Test and control animals were introduced one at a time for 10 minute periods into the arena. During the 10 min test, the time that the test or positive control animal spent investigating each stimulus animal was noted. The arena was thoroughly cleaned between animals. The position of the male/female stimuli boxes was randomised between animals, in order to avoid place preference. The difference in the percentage of time spent investigating the male minus the female stimuli was calculated, out of the total time spent investigating stimuli animals.
Compound (1) was dissolved in 100% β-cyclodextrin and then diluted with saline to a final solution of 50% 2-hydroxypropyl-β-cyclodextrin. It was administered intraperitoneally (i.p.) at doses of 3 and 10 mg/kg, in a dosing volume of 1 ml/kg, 1 h before tests. Progesterone (0.5 mg/0.1 ml) was dissolved in corn oil and administered subcutaneously (s.c.), 4 h before test, as a positive control.
Ovariectomised adult female Sprague Dawley rats (180-200 g) were housed in groups of 5 in a reversed lighting system of 12 h light:dark (lights off 5.00-17.00 h). They were used for the experiments at least two weeks after ovariectomy. Forty eight hours before tests, the animals were primed with oestradiol benzoate (5 μg/[…] in corn oil, s.c.). On day 1, progesterone (0.5 mg/0.1 ml, in corn oil, s.c.) was administered to one of the groups 4 h before tests, as a positive control. Compound (1) (15 mg/kg, i.p.) was administered in 50% 2-hydroxypropyl-β-cyclodextrin, 1 h before tests. The test lasted 10 minutes and was carried out as described before. The difference in the percentage of time spent investigating the male minus the female stimuli was calculated, out of the total time spent investigating stimuli animals. Animals were submitted to a test on day 1 and on day 15. From day 2 to 14 the Compound (1) group received a daily injection of the compound (15 mg/kg, i.p.), while both the vehicle and the progesterone groups received an injection of vehicle. On day 15 the test took place again, as described for day 1.
Ovariectomised female rats (Sprague Dawley, obtained from Charles River, UK) were stereotaxically implanted (coordinates 0.89 mm behind Bregma, 1.3 mm lateral and 2.5 mm vertical) with stainless steel cannulae (6 mm long, O.D. 0.75 mm), held in place with dental cement. Animals were housed in groups of three and returned to a reversed lighting system of 12 h light:dark (lights off 5.00-17.00 h). Correct placement of the cannulae was assessed post-mortem. Rats were used for tests two weeks after ovariectomy (one week after cannulation). The experiments started at least 5 h into the dark period. […]

For data set [2], the system named is penile intracavernosal pressure. Kind of data set: Pelvic nerve-stimulated penile intracavernosal pressure in the anaesthetised rabbit model of erection. The format is in vivo. As to conditions: Compound 3 (10 mg/kg sc) concomitant with a selective PDE5 inhibitor (1 mg/kg iv), vs Compound 3 alone, anaesthetised rabbit (FIG. 26). The procedure: Male New Zealand rabbits (˜2.5kg) were pre-medicated with a combination of Medetomidine (Domitor®) 0.5 ml/kg i.m., and Ketamine (Vetalar®)) 0.25 ml/kg i.m. whilst maintaining oxygen intake via a face mask. The rabbits were tracheotomised using a PorteXTM uncuffed endotracheal tube 3 ID., connected to ventilator and maintained at a ventilation rate of 30-40 breaths per minute, with an approximate tidal volume of 18-20 ml, and a maximum airway pressure of 10 cm H2O. Anaesthesia was then switched to Isoflurane and ventilation continued with O2 at 21/min. The right marginal ear vein was cannulated using a 23G or 24G catheter, and Lactated Ringer solution perfused at 0.5 ml/min. The rabbit was maintained at 3% Isoflurane during invasive surgery, dropping to 2% for maintenance anaesthesia. The left jugular vein was exposed, isolated and then cannulated with a PVC catheter (17G) for the infusion of drugs and compounds.
The left groin area of the rabbit was shaved and a vertical incision was made approximately 5 cm in length along the thigh. […] Systolic and diastolic pressures were measured, and the mean arterial pressure calculated using the formula (diastolic x2+systolic)÷3. Heart rate was measured via the pulse oxymeter and Po-ne-mah data acquisition software system (Ponemah Physiology Platform, Gould Instrument Systems Inc). […]

Take `COc1ccc(C2(CNC(=O)[C@](C)(Cc3c[nH]c4ccccc34)NC(=O)Nc3ccc([N+](=O)[O-])cc3)CCCCC2)nc1` [Compound (1), (S) 3-(1H-Indol-3-yl)-N-[1-(5-methoxy-pyridin-2-yl)-cyclohexyl-methyl]-2-methyl-2-[3-(4-nitro-phenyl)-ureido]-propionamide]: the “body weight, general behaviour, tolerability on repeated administration” value in data set [1] (15 mg/kg i.p. daily for 15 days, female rats) is “no changes in body weight or general behaviour; also recorded: well tolerated”. Besides, the “proceptivity on day 1 vs vehicle” value in data set [1] (Compound (1) 15 mg/kg i.p. 1 h before test, progesterone 0.5 mg s.c. 4 h before test (FIG. 3)) is on record as “stimulatory effect on proceptivity”. The “percentage of time spent investigating the male stimulus” value in data set [1] (i.c.v., 3-30 μg/rat, 10 min before test (FIG. 4)) is reported as “dose-dependently (3-30 μg/rat) increased the percentage of time spent investigating the male stimulus”; in data set [1] (i.p., 3 and 10 mg/kg, 1 h before test, vs vehicle (FIG. 1)), “dose-dependently (3 mg/kg-10 mg/kg) increased the percentage of time spent investigating the male stimulus”.
Regarding `C[C@@](Cc1c[nH]c2ccccc12)(NC(=O)Nc1ccc([N+](=O)[O-])cc1)C(=O)NCC1(c2ccc(N)cc2)CCCCC1` [Compound 3, (2S)-N-{[1-(4-aminophenyl)cyclohexyl]methyl}-3-(1H-indol-3-yl)-2-methyl-2-{[(4-nitroanilino)-carbonyl]amino}propanamide], the “pelvic nerve-stimulated intracavernosal pressure (ICP)” value in data set [2] is “marked enhancement of the ICP”; in data set [2] (listed as compound 3) it was “marked enhancement of intracavernosal pressure”.
